What all share (test): relative viability (nuclei count vs DMSO), 5 days (fraction); higher = more cells survive
Compound in the assay “Midostaurin + Luminespib”: CO[C@@H]1[C@H](N(C)C(=O)c2ccccc2)C[C@H]2O[C@]1(C)n1c3ccccc3c3c4c(c5c6ccccc6n2c5c31)C(=O)NC4 [Midostaurin] + CCNC(=O)c1noc(-c2cc(C(C)C)c(O)cc2O)c1-c1ccc(CN2CCOCC2)cc1 [Luminespib] (partner 0.01 µM)
In outline:
(§1)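 Relative viability was taken as the ratio of nuclei in treated wells to nuclei in vehicle wells. Lung cancer cell lines in 1536-well plates received compounds by pin tool one day after seeding, either one drug alone or a fixed anchor-drug dose plus five library-drug doses (not always all listed) in √10 steps. Nuclei were counted on 4× images after 5 days of treatment, and values are medians of duplicate plates.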

Compound in the assay “Midostaurin + Dasatinib”: CO[C@@H]1[C@H](N(C)C(=O)c2ccccc2)C[C@H]2O[C@]1(C)n1c3ccccc3c3c4c(c5c6ccccc6n2c5c31)C(=O)NC4 [Midostaurin] + Cc1nc(Nc2ncc(C(=O)Nc3c(C)cccc3Cl)s2)cc(N2CCN(CCO)CC2)n1 [Dasatinib] (partner 0.075 µM)
In outline: as §1

Compound in assay [1]: COc1cc(-c2nn([C@H]3CC[C@H](N4CCN(C(C)=O)CC4)CC3)c3ncnc(N)c23)ccc1NC(=O)c1cc2ccccc2n1C + CC(=O)Nc1cccc(-n2c(=O)n(C3CC3)c(=O)c3c(Nc4ccc(I)cc4F)n(C)c(=O)c(C)c32)c1 [Trametinib] (partner 0.02 µM)
In outline:
as §1

Compound in assay [2]: COc1cc(-c2nn([C@H]3CC[C@H](N4CCN(C(C)=O)CC4)CC3)c3ncnc(N)c23)ccc1NC(=O)c1cc2ccccc2n1C + CC1(C)CCC(c2ccc(Cl)cc2)=C(CN2CCN(c3ccc(C(=O)NS(=O)(=O)c4ccc(N[C@H](CCN5CCOCC5)CSc5ccccc5)c(S(=O)(=O)C(F)(F)F)c4)cc3)CC2)C1 [Navitoclax] (partner 0.5 µM)
In outline:
as §1

Compound in assay [3]: COc1cc(-c2nn([C@H]3CC[C@H](N4CCN(C(C)=O)CC4)CC3)c3ncnc(N)c23)ccc1NC(=O)c1cc2ccccc2n1C + O=C(c1cc(Cc2n[nH]c(=O)c3ccccc23)ccc1F)N1CCN(C(=O)C2CC2)CC1 [Olaparib] (partner 8 µM)
In outline: as §1

Turning to UMC-11, the relative viability with Midostaurin + Luminespib (first compound 0.01 µM) came to 1.02; with Midostaurin + Luminespib (first compound 0.03162 µM), 0.849; with Midostaurin + Luminespib (first compound 0.1 µM), 0.932; with Midostaurin + Luminespib (first compound 0.3162 µM) it was 0.463; with Midostaurin + Dasatinib (first compound 0.01 µM), 0.362; with Midostaurin + Dasatinib (first compound 0.03162 µM) it was 0.403. Besides, the relative viability in the assay with Midostaurin + Dasatinib (first compound 0.1 µM) stood at 0.444; in the assay with Midostaurin + Dasatinib (first compound 0.3162 µM), 0.344; in assay [1] (first compound 0.0128 µM), 0.654; in assay [1] (first compound 0.04048 µM), 0.689; in assay [1] (first compound 0.128 µM) it was 0.67; in assay [1] (first compound 1.28 µM), 0.661. In addition, the relative viability in assay [2] (first compound 0.0128 µM) worked out at 0.315; in assay [2] (first compound 0.04048 µM), 0.323; in assay [2] (first compound 0.128 µM), 0.28; in assay [2] (first compound 1.28 µM), 0.297; in assay [3] (first compound 0.0128 µM), 0.388; in assay [3] (first compound 0.04048 µM) it was 0.464. Moreover, the relative viability in assay [3] (first compound 0.128 µM) came out at 0.342; in assay [3] (first compound 1.28 µM), 0.362.
